For one assay, the target named is T1, GST-ULK1 (Homo sapiens, UniProt O75385).
T1 sequence (O75385 1-1050): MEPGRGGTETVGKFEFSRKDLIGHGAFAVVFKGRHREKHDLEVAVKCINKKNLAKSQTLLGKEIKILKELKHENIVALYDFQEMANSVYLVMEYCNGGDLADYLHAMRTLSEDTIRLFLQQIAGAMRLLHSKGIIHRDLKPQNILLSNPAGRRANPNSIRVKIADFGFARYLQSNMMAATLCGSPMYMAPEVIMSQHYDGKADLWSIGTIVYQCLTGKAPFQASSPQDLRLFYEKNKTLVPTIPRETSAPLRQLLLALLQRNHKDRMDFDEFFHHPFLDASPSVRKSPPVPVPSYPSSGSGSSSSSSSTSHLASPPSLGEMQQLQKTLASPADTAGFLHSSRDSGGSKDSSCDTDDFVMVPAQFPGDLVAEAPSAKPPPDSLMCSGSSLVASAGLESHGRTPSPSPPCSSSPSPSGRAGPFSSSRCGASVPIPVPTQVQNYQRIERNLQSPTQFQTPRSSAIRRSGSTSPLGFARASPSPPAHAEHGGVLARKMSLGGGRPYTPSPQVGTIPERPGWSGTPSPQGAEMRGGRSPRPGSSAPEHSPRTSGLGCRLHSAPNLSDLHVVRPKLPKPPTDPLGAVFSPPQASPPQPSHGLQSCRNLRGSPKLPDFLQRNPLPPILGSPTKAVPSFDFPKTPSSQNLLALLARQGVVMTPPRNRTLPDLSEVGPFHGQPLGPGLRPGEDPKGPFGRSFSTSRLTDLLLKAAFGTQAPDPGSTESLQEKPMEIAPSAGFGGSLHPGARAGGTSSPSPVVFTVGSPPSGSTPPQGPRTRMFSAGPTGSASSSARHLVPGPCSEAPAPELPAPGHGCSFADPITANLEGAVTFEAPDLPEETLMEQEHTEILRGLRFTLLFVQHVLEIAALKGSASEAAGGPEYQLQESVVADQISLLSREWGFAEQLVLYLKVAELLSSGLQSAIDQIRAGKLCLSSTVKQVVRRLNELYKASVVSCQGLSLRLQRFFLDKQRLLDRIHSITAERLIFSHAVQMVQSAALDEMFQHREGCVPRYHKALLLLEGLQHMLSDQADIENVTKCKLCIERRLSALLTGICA
In words: LanthaScreen ULK1 inhibitor assay. The conditions noted are these: 5 nM GST-ULK1, 30 nM tracer, 20 μM ATP, 1 hr room temperature. In kind it is biochemical.

For the next assay, the target named is T2, ULK1 kinase domain (Homo sapiens, UniProt O75385).
T2 construct: The protein expression construct of ULK1 kinase domain (1-283) was cloned; 6His-Sumo (N, cleaved yes); made in house; host or cells: E. coli BL21 star, co-expressed with lambda phosphatase
T2 sequence (O75385 1-283): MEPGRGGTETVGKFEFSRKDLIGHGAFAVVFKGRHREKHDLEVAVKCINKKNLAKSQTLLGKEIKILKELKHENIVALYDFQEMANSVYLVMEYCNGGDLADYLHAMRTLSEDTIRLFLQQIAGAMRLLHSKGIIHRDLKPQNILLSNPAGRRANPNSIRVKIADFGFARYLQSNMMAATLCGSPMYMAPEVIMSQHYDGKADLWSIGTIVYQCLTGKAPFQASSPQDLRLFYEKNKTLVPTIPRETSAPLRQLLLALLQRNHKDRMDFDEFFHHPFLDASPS
In words: Differential scanning fluorimetry (thermal shift). In kind it is binding. The conditions noted are these: 2 μM ULK1 kinase domain, 50 μM compound, vs DMSO reference.

The next assay concerns the target T3, ULK1 kinase (Homo sapiens, UniProt O75385).
T3 construct: purchased Reaction Biology
T3 sequence (O75385 1-1050): T1 sequence (O75385 1-1050)
In words: Radiometric HotSpot kinase assay (Reaction Biology). The note with it: activity-based ULK1 kinase assay. In kind it is biochemical.

For 19 compounds, IC50 and ΔTm results are on record in patent publication US20250042895A1, “INHIBITORS OF ULK1 AND METHODS OF USE” (H. LEE MOFFITT CANCER CENTER AND RESEARCH INSTITUTE, INC., priority 2021, published 2025).

Broadly, the IC50 is the point on the concentration scale where inhibition reaches its midpoint. The term ΔTm denotes the change in melting temperature against a reference sample.

SMILES strings stand for the structures.

For the compound `O=C(NC(CO)CO)c1nc(-c2cnc3[nH]c(-c4ccc(F)cc4)cc3c2)cs1` [Compound 63, N-(1,3-Dihydroxypropan-2-yl)-4-(2-(4-fluorophenyl)-1H-pyrrolo[2,3-b]pyridin-5-yl)-thiazole-2-carboxamide], the IC50 at GST-ULK1 was determined as 103 nM; against ULK1 kinase, 55 nM. Moreover, the thermal shift (ΔTm) at 50 µM at ULK1 kinase domain was found to be 6.46 °C.

Take `FC(F)(F)c1cnc2[nH]c(C3=CCOCC3)cc2c1NC1CCNC1` (stereo not drawn) [Compound 84, 2-(3,6-dihydro-2H-pyran-4-yl)-N-(pyrrolidin-3-yl)-5-(trifluoromethyl)-1H-pyrrolo[2,3-b]pyridin-4-amine]: the IC50 against GST-ULK1 amounted to 412 nM; at ULK1 kinase, 549 nM. Moreover, the ΔTm at 50 µM at ULK1 kinase domain is 7.13 °C.

With `O=C(NC(CO)CO)c1cccc(-c2cnc3[nH]c(-c4ccc(F)cc4)cc3c2)n1` [Compound 55, N-(1,3-Dihydroxypropan-2-yl)-6-(2-(4-fluorophenyl)-1H-pyrrolo[2,3-b]pyridin-5-yl)picolinamide], the IC50 turned out to be 74 nM at GST-ULK1 and 44 nM on ULK1 kinase. In addition, the thermal shift (ΔTm) at 50 µM on ULK1 kinase domain came to 8.56 °C.

As to `Fc1ccc(-c2cc3c(NCC(F)(F)F)c(C(F)(F)F)cnc3[nH]2)cc1` [Compound 81, 2-(4-fluorophenyl)-N-(2,2,2-trifluoroethyl)-5-(trifluoromethyl)-1H-pyrrolo[2,3-b]pyridin-4-amine], the results for the IC50 on GST-ULK1 and against ULK1 kinase were 14 nM and 15 nM, respectively. The ΔTm at 50 µM on ULK1 kinase domain was 5.41 °C.

Regarding `O=C(NCC1(O)CCCC1)c1nc(-c2cnc3[nH]c(-c4ccc(F)cc4)cc3c2)cs1` [Compound 72, 4-(2-(4-fluorophenyl)-1H-pyrrolo-[2,3-b]pyridin-5-yl)-N-((1-hydroxy-cyclopentyl)methyl)thiazole-2-carboxamide], the IC50 against GST-ULK1 was found to be 36 nM; at ULK1 kinase, 50 nM. Also, the ΔTm at 50 µM on ULK1 kinase domain stood at 7.96 °C.

With `FC(F)(F)c1cnc2[nH]c(C3=CCOCC3)cc2c1NCCCN1CCCC1` [Compound 91, 2-(3,6-dihydro-2H-pyran-4-yl)-N-(3-(pyrrolidin-1-yl)propyl)-5-(trifluoromethyl)-1H-pyrrolo[2,3-b]pyridin-4-amine], the values for the IC50 against GST-ULK1 and at ULK1 kinase were 167 nM and 110 nM, respectively. Further, the ΔTm at 50 µM on ULK1 kinase domain stood at 9.77 °C.

For the compound `O=C(NCC(O)C(F)(F)F)c1cccc(-c2cnc3[nH]c(-c4ccc(F)cc4)cc3c2)n1` (stereo not drawn) [Compound 57, 6-(2-(4-Fluorophenyl)-1H-pyrrolo[2,3-b]pyridin-5-yl)-N-(3,3,3-trifluoro-2-hydroxy-propyl)picolinamide], the IC50 against GST-ULK1 turned out to be 20 nM; on ULK1 kinase it was 49 nM. Further, the ΔTm at 50 µM on ULK1 kinase domain was 8.73 °C.

For the compound `CN1CCC(c2cc3c(NCCN4CCOCC4)c(C(F)(F)F)cnc3[nH]2)CC1` [Compound 95, 2-(1-methylpiperidin-4-yl)-N-(2-morpholinoethyl)-5-(trifluoromethyl)-1H-pyrrolo[2,3-b]pyridin-4-amine], the IC50 came to 917 nM at GST-ULK1 and 758 nM on ULK1 kinase. Also, the shift in melting temperature (ΔTm) at 50 µM on ULK1 kinase domain amounted to 0.49 °C.

Regarding `FC(F)(F)c1cnc2[nH]c(C3CCOCC3)cc2c1NCCN1CCOCC1` [Compound 88, N-(2-morpholinoethyl)-2-(tetrahydro-2H-pyran-4-yl)-5-(trifluoromethyl)-1H-pyrrolo-[2,3-b]pyridin-4-amine], the values for the IC50 at GST-ULK1 and at ULK1 kinase were 4520 nM and 4450 nM, respectively. Further, on ULK1 kinase domain, the ΔTm at 50 µM came out at 2.37 °C.

As for `O=C(NC1CNC1)c1nc(-c2cnc3[nH]c(-c4ccc(F)cc4)cc3c2)cs1` [Compound 80, N-(azetidin-3-yl)-4-(2-(4-fluoro-phenyl)-1H-pyrrolo[2,3-b]pyridin-5-yl)thiazole-2-carboxamide], the IC50 against GST-ULK1 stood at 966 nM; at ULK1 kinase, 502 nM. In addition, the ΔTm at 50 µM at ULK1 kinase domain turned out to be 4.99 °C.

As to `O=C(NC[C@@H](O)CO)c1cccc(-c2cnc3[nH]c(-c4ccc(F)cc4)cc3c2)n1` [Compound 52, (R)—N-(2,3-Dihydroxypropyl)-6-(2-(4-fluorophenyl)-1H-pyrrolo[2,3-b]pyridin-5-yl)-picolinamide], the 50% inhibitory concentration (IC50) was found to be 106 nM on GST-ULK1 and 45 nM at ULK1 kinase. The shift in melting temperature (ΔTm) at 50 µM on ULK1 kinase domain was found to be 8.86 °C.

For the compound `C[C@H](CO)NC(=O)c1nc(-c2cnc3[nH]c(-c4ccc(F)cc4)cc3c2)cs1` [Compound 77, (R)-4-(2-(4-fluorophenyl)-1H-pyrrolo[2,3-b]pyridin-5-yl)-N-(1-hydroxypropan-2-yl)thiazole-2-carboxamide], the half-maximal inhibitory concentration (IC50) at GST-ULK1 was determined as 741 nM; at ULK1 kinase, 348 nM. For the same compound, the thermal shift (ΔTm) at 50 µM on ULK1 kinase domain turned out to be 4.54 °C.

Take `CN1CC=C(c2cc3c(N4CC(F)(F)C4)c(C(F)(F)F)cnc3[nH]2)CC1` [Compound 100, 4-(3,3-difluoroazetidin-1-yl)-2-(1-methyl-1,2,3,6-tetrahydropyridin-4-yl)-5-(trifluoromethyl)-1H-pyrrolo[2,3-b]pyridine]: the results for the IC50 against GST-ULK1 and against ULK1 kinase were 218 nM and 171 nM, respectively. In addition, the shift in melting temperature (ΔTm) at 50 µM on ULK1 kinase domain came out at 4.99 °C.

Regarding `FC1(F)CCN(c2c(C(F)(F)F)cnc3[nH]c(C4=CCOCC4)cc23)CC1` [Compound 93, 4-(4,4-Difluoropiperidin-1-yl)-2-(3,6-dihydro-2H-pyran-4-yl)-5-(trifluoromethyl)-1H-pyrrolo[2,3-b]pyridine], the results for the IC50 at GST-ULK1 and at ULK1 kinase were 8280 nM and 7070 nM, respectively. At ULK1 kinase domain, the shift in melting temperature (ΔTm) at 50 µM worked out at 2.03 °C.

As to `O=C(NCC(O)C(F)(F)F)c1cccc(-c2cnc3[nH]c(-c4ccc(F)cc4)cc3c2)c1` (stereo not drawn) [Compound 50, 3-(2-(4-Fluorophenyl)-1H-pyrrolo[2,3-b]pyridin-5-yl)-N-(3,3,3-trifluoro-2-hydroxy-propyl)benzamide], the values for the 50% inhibitory concentration (IC50) against GST-ULK1 and at ULK1 kinase were 86 nM and 91 nM, respectively. Besides, the ΔTm at 50 µM at ULK1 kinase domain is 4.4 °C.

Consider `CN1CC=C(c2cc3c(NCCCN4CCCC4)c(C(F)(F)F)cnc3[nH]2)CC1` [Compound 97, 2-(1-methyl-1,2,3,6-tetrahydropyridin-4-yl)-N-(3-(pyrrolidin-1-yl)propyl)-5-(trifluoro-methyl)-1H-pyrrolo[2,3-b]pyridin-4-amine], for which the IC50 against GST-ULK1 worked out at 541 nM; on ULK1 kinase, 2380 nM. Further, on ULK1 kinase domain, the ΔTm at 50 µM worked out at 7.07 °C.

Take `CC[C@@H](CO)NC(=O)c1cccc(-c2cnc3[nH]c(-c4ccc(F)cc4)cc3c2)c1` [Compound 54, (S)-3-(2-(4-Fluorophenyl)-1H-pyrrolo[2,3-b]pyridin-5-yl)-N-(1-hydroxybutan-2-yl)benzamide]: the IC50 on GST-ULK1 stood at 5850 nM; at ULK1 kinase, 1470 nM. Moreover, the ΔTm at 50 µM on ULK1 kinase domain worked out at 1.62 °C.

In the case of `FC(F)(F)c1cnc2[nH]c(C3CCOCC3)cc2c1NC1CCNC1` (stereo not drawn) [Compound 83, N-(pyrrolidin-3-yl)-2-(tetrahydro-2H-pyran-4-yl)-5-(trifluoromethyl)-1H-pyrrolo[2,3-b]-pyridin-4-amine], the 50% inhibitory concentration (IC50) against GST-ULK1 is 208 nM; against ULK1 kinase, 401 nM. Further, at ULK1 kinase domain, the ΔTm at 50 µM was determined as 6.81 °C.

As for `O=C(c1nc(-c2cnc3[nH]c(-c4ccc(F)cc4)cc3c2)cs1)N1CC(F)C1` [Compound 74, (3-fluoroazetidin-1-yl)(4-(2-(4-fluorophenyl)-1H-pyrrolo[2,3-b]-pyridin-5-yl)thiazol-2-yl)methanone], the 50% inhibitory concentration (IC50) amounted to 665 nM against GST-ULK1 and 644 nM against ULK1 kinase. The shift in melting temperature (ΔTm) at 50 µM at ULK1 kinase domain was found to be 1.87 °C.
